Tests used:
Assay type in all cases: binding
HRH2 = target: T1, HRH2 (Homo sapiens, UniProt P25021); experiment: NanoBRET screen HiBiT-HRH2 in HEK293; settings: HRH2
T1 construct: purchased Promega (in-house HiBiT-GPCR construct library, NanoBRET)
Protocol: (§1) Each tracer candidate was screened across the entire library of HiBiT-GPCR constructs using NanoBRET as the detection modality. As depicted in Figure 4A, the specificity of interactions was evaluated through decrease in BRET due to competitive displacement of a bound tracer by excess parental compound. Each tracer was analyzed for binding to each HiBiT-GPCR fusion in the absence and in the presence of competing parental compound. Briefly, HEK293 cells were transfected with HiBiT-GPCR constructs diluted into promoterless DNA to reduce expression and maximize translocation to the cell surface. Each tracer candidate was then screened at concentrations of 1 μM and 0.1 μM across cells expressing these fusions. Cells were treated for 1.5 h with tracer either alone or in the presence of 20 μM competing parental compound (i.e., control). BRET was measured upon addition of purified LgBiT and subsequent complementation with HiBiT genetically fused to a GPCR. The specificity of interactions was assessed through a decrease in BRET signal due to competitive displacement of the bound tracer. To further gauge the robustness of these interactions, the fold response over the control (i.e., BRETtracer/BRETcontrol) was calculated. We chose a 1.5-fold response, which translates to ≥7-fold signal over noise as the minimal threshold required to score an interaction as positive. […]. Below we highlight the screening results obtained for our exemplary fluorescent tracers based on Clozapine, Amitriptyline and AZD1283.
(§2) HiBiT-GPCR DNA constructs were diluted in 10 mM Tris pH 8 to a final concentration of 0.01 μg/μL, arrayed in 96-well plates and stored at −20 °C. For transfection, HEK293 cells were suspended in Opti-MEM (without phenol red) supplemented with 2% fetal bovine serum (Seradigm) and 100 units/mL penicillin–streptomycin (Gibco) at a final concentration of 220,000 cells/mL and dispensed into white 96-well plates at 90 μL/well. Subsequent transfections and screens were carried using an Agilent Bravo Automated Liquid Handling Platform. First, the 96-well HiBiT DNA arrays were diluted 25-fold in Opti-MEM (without serum or phenol red) to a final concentration of 0.0004 μg/μL and 20 μL of the diluted DNAs were transferred into new 96-well plates. Next, promoterless carrier DNA (1 μg/μL) was diluted 25-fold (0.04 μg/μL) and then dispensed into the diluted arrays at 20 μL/well. Following brief mixing, Viafect transfection reagent (Promega) diluted 16-fold into Opti-MEM was dispensed into the plates at 40 μL/well. After mixing by pipetting, plates were incubated for 10 min on the pipetting station deck. The DNA-transfection reagent complexes were then added to plates containing cells. To facilitate the screen, 10 μL of DNA-transfection reagent complexes were added in duplicates to the top 4 and bottom 4 rows, resulting in two identical 48-well arrays per plate. Plates with transfected cells were incubated for 18–20 h at 37 °C/5% CO2. A screen of each tracer across the entire library using two different concentrations requires duplicate plates of transfected cells. Depending on the number of tracers being screened, transfections can be scaled up using the same ratios. The next day, for each tracer, four 20× screening solutions in tracer dilution buffer (Promega) were prepared: two duplicates at final concentration of 20 μM and two duplicates at a final concentration of 2 μM. A competing unmodified compound was added to one of each duplicate at a final concentration of 400 μM. The four resulting solutions were diluted 4-fold in Opti-MEM without serum or phenol red to generate 5× solutions (5 µM and 0.5 µM tracer +/− 100 μM competing compound). To screen the library, a BioTek MultiFlo FX liquid dispenser was used to dispense 22.5 µL of tracer solution to the top 4 rows and 22.5 µL tracer + competing compound solution to the 4 bottom rows. Plates were briefly mixed on an orbital shaker and incubated for 1.5 h at room temperature. […]

C5AR1 = target: T2, C5AR1 (Homo sapiens, UniProt P21730); experiment: NanoBRET screen HiBiT-C5AR1 in HEK293; settings: C5AR1
T2 construct: purchased Promega (in-house HiBiT-GPCR construct library, NanoBRET)
T2 sequence (P21730 1-350): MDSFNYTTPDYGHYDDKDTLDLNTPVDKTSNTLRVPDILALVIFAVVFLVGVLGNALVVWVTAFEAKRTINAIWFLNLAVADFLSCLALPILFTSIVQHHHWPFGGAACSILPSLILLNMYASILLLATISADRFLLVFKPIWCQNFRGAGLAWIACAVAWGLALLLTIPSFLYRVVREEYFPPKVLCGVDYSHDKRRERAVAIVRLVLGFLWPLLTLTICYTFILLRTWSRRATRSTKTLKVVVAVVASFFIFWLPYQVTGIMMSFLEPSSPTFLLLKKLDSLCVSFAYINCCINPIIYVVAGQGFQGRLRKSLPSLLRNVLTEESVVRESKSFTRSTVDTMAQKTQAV
Protocol: as §1, §2

GHSR = target: T3, GHSR (Homo sapiens, UniProt Q92847); experiment: NanoBRET screen HiBiT-GHSR in HEK293; settings: GHSR
T3 construct: purchased Promega (in-house HiBiT-GPCR construct library, NanoBRET)
Protocol: as §1, §2

OXER1 = target: T4, OXER1 (Homo sapiens, UniProt Q8TDS5); experiment: NanoBRET screen HiBiT-OXER1 in HEK293; settings: OXER1
T4 construct: purchased Promega (in-house HiBiT-GPCR construct library, NanoBRET)
Protocol: as §1, §2

CCKAR = target: T5, CCKAR (Homo sapiens, UniProt P32238); experiment: NanoBRET screen HiBiT-CCKAR in HEK293; settings: CCKAR
T5 construct: purchased Promega (in-house HiBiT-GPCR construct library, NanoBRET)
T5 sequence (P32238 1-428): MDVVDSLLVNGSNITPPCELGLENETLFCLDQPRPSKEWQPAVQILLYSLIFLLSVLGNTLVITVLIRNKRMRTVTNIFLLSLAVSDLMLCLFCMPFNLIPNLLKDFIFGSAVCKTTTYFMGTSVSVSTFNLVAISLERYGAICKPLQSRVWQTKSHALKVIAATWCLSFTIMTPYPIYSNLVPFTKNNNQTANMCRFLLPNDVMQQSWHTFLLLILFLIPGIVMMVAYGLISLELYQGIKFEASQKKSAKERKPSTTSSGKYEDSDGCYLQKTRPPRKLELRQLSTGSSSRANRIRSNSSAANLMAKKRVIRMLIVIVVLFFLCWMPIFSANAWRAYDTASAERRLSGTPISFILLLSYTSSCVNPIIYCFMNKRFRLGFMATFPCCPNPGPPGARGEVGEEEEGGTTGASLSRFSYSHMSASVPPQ
Protocol: as §1, §2

T4 sequence (Q8TDS5 whole entry): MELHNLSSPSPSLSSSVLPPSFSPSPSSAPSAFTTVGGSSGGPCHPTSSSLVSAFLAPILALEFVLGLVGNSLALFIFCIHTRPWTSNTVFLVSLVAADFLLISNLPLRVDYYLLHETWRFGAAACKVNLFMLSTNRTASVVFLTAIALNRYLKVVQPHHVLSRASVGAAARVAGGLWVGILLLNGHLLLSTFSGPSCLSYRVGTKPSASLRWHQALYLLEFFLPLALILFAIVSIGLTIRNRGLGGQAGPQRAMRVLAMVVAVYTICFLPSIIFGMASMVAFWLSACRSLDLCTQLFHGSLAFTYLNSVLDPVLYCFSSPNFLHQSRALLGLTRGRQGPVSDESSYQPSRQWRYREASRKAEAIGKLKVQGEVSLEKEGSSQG
T3 sequence (Q92847 whole entry): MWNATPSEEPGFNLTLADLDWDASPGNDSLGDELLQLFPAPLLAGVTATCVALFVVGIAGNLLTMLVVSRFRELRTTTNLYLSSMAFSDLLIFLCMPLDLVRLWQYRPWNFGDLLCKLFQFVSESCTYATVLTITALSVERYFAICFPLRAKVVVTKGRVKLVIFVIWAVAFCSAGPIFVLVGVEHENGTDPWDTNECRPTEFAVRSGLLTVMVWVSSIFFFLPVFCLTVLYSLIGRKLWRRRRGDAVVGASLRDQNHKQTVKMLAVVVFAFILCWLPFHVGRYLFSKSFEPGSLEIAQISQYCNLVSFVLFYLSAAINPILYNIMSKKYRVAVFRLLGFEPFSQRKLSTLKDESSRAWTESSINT
T1 sequence (P25021 whole entry): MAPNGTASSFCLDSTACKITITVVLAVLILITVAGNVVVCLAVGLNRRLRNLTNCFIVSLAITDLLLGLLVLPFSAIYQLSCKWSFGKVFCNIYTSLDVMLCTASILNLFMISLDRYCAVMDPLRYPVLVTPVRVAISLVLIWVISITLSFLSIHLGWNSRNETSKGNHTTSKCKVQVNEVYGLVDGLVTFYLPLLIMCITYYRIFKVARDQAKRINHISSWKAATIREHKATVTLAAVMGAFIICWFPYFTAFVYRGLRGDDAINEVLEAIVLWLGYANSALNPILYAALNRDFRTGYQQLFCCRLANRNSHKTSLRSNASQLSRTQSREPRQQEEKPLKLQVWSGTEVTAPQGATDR

Compound: CCCn1c(=O)c2[nH]c(-c3ccc(OCC(=O)NCCNC(=O)CCOCCNC(=O)c4ccc(CNC(=O)CCc5ccc6n5[B-](F)(F)[N+]5=C(c7ccc[nH]7)C=CC5=C6)cc4)cc3)nc2n(CCC)c1=O [XAC-3-NB590]
- NanoBRET Fold Response (HRH2; tracer 0.1μM): 0.82
- NanoBRET Fold Response (HRH2; tracer 1μM): 1.15
- NanoBRET Fold Response (C5AR1; tracer 0.1μM): 0.95
- NanoBRET Fold Response (C5AR1; tracer 1μM): 1.04
- NanoBRET Fold Response (GHSR; tracer 0.1μM): 1.07
- NanoBRET Fold Response (GHSR; tracer 1μM): 1.02
- NanoBRET Fold Response (OXER1; tracer 0.1μM): 1.04
- NanoBRET Fold Response (OXER1; tracer 1μM): 0.96
- NanoBRET Fold Response (CCKAR; tracer 0.1μM): 1.01
- NanoBRET Fold Response (CCKAR; tracer 1μM): 1.01

Source: publication PMC8151276, “An Integrated Approach toward NanoBRET Tracers for Analysis of GPCR Ligand Engagement” (Molecules, 2021)
